For test [1], the target named is T1, human adenosine A2A receptor (Homo sapiens, UniProt P29274).
T1 construct: expressed in transfected cells; host or cells: CHO cells, Semliki Forest virus expression system; membrane preparation
The experiment in a line: Human adenosine A2A receptor [3H]-SCH-58261 binding assay. As to conditions: for Ki: affinity to human adenosine A2A receptor, read-out: Ki HA2A; for selectivity (A1/A2a): calculated ratio of the affinity to the HA1 receptor to the HA2a receptor.

In a further test the target is T2, HA1 adenosine receptor (Homo sapiens, UniProt P30542).
T2 sequence (P30542 1-326): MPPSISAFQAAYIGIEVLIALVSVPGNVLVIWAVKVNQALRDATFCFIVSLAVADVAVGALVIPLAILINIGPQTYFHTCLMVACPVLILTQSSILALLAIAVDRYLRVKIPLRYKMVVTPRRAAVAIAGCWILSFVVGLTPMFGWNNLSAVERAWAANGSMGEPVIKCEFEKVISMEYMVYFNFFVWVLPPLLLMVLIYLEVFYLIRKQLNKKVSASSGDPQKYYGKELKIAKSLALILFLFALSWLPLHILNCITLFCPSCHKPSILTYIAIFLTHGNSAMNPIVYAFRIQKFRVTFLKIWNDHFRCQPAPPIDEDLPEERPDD
The test can be described thus: Human adenosine A1 receptor affinity (Ki hA1). As to conditions: affinity to human adenosine A1 receptor. Type of test: binding.

T1 sequence (P29274 whole entry): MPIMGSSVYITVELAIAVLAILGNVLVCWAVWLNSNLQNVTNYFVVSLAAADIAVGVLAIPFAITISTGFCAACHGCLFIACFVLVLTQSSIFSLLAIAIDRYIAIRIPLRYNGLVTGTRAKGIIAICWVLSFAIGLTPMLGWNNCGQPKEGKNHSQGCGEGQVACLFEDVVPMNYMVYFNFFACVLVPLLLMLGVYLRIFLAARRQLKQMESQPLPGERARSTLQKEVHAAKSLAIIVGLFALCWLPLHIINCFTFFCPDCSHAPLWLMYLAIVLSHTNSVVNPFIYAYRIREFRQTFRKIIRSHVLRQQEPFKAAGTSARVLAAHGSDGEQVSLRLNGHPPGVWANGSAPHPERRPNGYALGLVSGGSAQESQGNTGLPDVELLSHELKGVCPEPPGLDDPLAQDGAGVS

Consider `Nc1cc(C(=O)N2CCCC2)cc2nc(-c3ccccc3)nn12` [Example 150, (5-Amino-2-phenyl-[1,2,4]triazolo[1,5-a]pyridin-7-yl)-pyrrolidin-1-yl-methanone], for which the Ki amounted to 82.3 nM in test [1] and 711 nM at HA1 adenosine receptor. For the same molecule, the “selectivity (A1/A2a)” value in test [1] was 8.6.

Turning to `Nc1cc(C(=O)N2CCCCC2)cc2nc(-c3ccccc3)nn12` [Example 151, (5-Amino-2-phenyl-[1,2,4]triazolo[1,5-a]pyridin-7-yl)-piperidin-1-yl-methanone], in test [1], the Ki amounted to 85.5 nM and the “selectivity (A1/A2a)” value was 10.8. Further, the Ki on HA1 adenosine receptor turned out to be 928 nM.

For the molecule `CN(Cc1ccccc1)C(=O)c1cc(N)n2nc(-c3ccccc3)nc2c1` [Example 152, 5-Amino-2-phenyl-[1,2,4]triazolo[1,5-a]pyridine-7-carboxylic acid benzyl-methyl-amide], the Ki in test [1] worked out at 32.8 nM; at HA1 adenosine receptor, 367 nM. For the same molecule, in test [1], the “selectivity (A1/A2a)” value is given as 11.2.

As to `CCN(CC)C(=O)c1cc(N)n2nc(-c3ccoc3)nc2c1` [Example 153, 5-Amino-2-furan-3-yl-[1,2,4]triazolo[1,5-a]pyridine-7-carboxylic acid diethylamide], the inhibitory constant (Ki) in test [1] worked out at 301 nM; on HA1 adenosine receptor, 4800 nM. The “selectivity (A1/A2a)” value in test [1] is on record as 16.0.

Take `Nc1cc(C(=O)NC2CCCCC2)cc2nc(-c3ccoc3)nn12` [Example 154, 5-Amino-2-furan-3-yl-[1,2,4]triazolo[1,5-a]pyridine-7-carboxylic acid cyclohexylamide]: in test [1], the Ki was 88.1 nM and the “selectivity (A1/A2a)” value was 13.3. The same molecule yielded a Ki on HA1 adenosine receptor of 1180 nM.

Regarding `Nc1cc(C(=O)N2CCCCC2)cc2nc(-c3ccoc3)nn12` [Example 155, (5-Amino-2-furan-3-yl-[1,2,4]triazolo[1,5-a]pyridin-7-yl)-piperidin-1-yl-methanone], in test [1], the inhibition constant Ki came out at 301 nM and the “selectivity (A1/A2a)” value is 19.4. Moreover, the inhibitory constant (Ki) on HA1 adenosine receptor was determined as 5850 nM.

Take `Nc1cc(C(=O)NCc2ccccc2Cl)cc2nc(-c3ccoc3)nn12` [Example 156, 5-Amino-2-furan-3-yl-[1,2,4]triazolo[1,5-a]pyridine-7-carboxylic acid 2-chloro-benzylamide]: in test [1], the Ki was 17.1 nM and the “selectivity (A1/A2a)” value is listed as 13.3. For the same molecule, the Ki on HA1 adenosine receptor stood at 228 nM.

On to `Nc1cc(C(=O)NCc2ccccc2Br)cc2nc(-c3ccoc3)nn12` [Example 157, 5-Amino-2-furan-3-yl-[1,2,4]triazolo[1,5-a]pyridine-7-carboxylic acid 2-bromo-benzylamide], for which, in test [1], the inhibition constant (Ki) came to 18 nM and the “selectivity (A1/A2a)” value was 12.8. The Ki at HA1 adenosine receptor was determined as 231 nM.

As for `CCCCNC(=O)c1cc(N)n2nc(-c3ccccc3O)nc2c1` [Example 158, 5-Amino-2-(2-hydroxy-phenyl)-[1,2,4]triazolo[1,5-a]pyridine-7-carboxylic acid butylamide], the Ki came out at 87.5 nM in test [1] and 258 nM at HA1 adenosine receptor. Moreover, in test [1], the “selectivity (A1/A2a)” value is on record as 3.0.

As for `Nc1cc(C(=O)NCc2ccccc2Cl)cc2nc(-c3ccccc3O)nn12` [Example 159, 5-Amino-2-(2-hydroxy-phenyl)-[1,2,4]triazolo[1,5-a]pyridine-7-carboxylic acid 2-chloro-benzylamide], in test [1], the Ki came out at 105 nM and the “selectivity (A1/A2a)” value is recorded as 2.7. The molecule further had an inhibition constant Ki at HA1 adenosine receptor of 279 nM.

Regarding `Nc1cc(C(=O)NCc2ccccc2Br)cc2nc(-c3ccccc3O)nn12` [Example 160, 5-Amino-2-(2-hydroxy-phenyl)-[1,2,4]triazolo[1,5-a]pyridine-7-carboxylic acid 2-bromo-benzylamide], the Ki in test [1] was 126 nM; at HA1 adenosine receptor, 139 nM. The “selectivity (A1/A2a)” value in test [1] is recorded as 1.1.

As for `CCCCNC(=O)c1cc(N)n2nc(-c3cccs3)nc2c1` [Example 161, 5-Amino-2-thiophen-2-yl-[1,2,4]triazolo[1,5-a]pyridine-7-carboxylic acid butylamide], in test [1], the inhibitory constant (Ki) came to 28 nM and the “selectivity (A1/A2a)” value is listed as 5.7. Also, the inhibition constant Ki on HA1 adenosine receptor stood at 161 nM.

Consider `Nc1cc(C(=O)NC2CCCCC2)cc2nc(-c3cccs3)nn12` [Example 162, 5-Amino-2-thiophen-2-yl-[1,2,4]triazolo[1,5-a]pyridine-7-carboxylic acid cyclohexylamide], for which, in test [1], the inhibitory constant (Ki) was found to be 61.4 nM and the “selectivity (A1/A2a)” value is 4.9. This molecule also showed an inhibition constant (Ki) on HA1 adenosine receptor of 301 nM.

Consider `Nc1cc(C(=O)NCc2ccccc2Cl)cc2nc(-c3cccs3)nn12` [Example 163, 5-Amino-2-thiophen-2-yl-[1,2,4]triazolo[1,5-a]pyridine-7-carboxylic acid 2-chloro-benzylamide], for which, in test [1], the inhibitory constant (Ki) came to 31.1 nM and the “selectivity (A1/A2a)” value was 4.0. At HA1 adenosine receptor, this molecule yielded a Ki of 125 nM.

Consider `Nc1cc(C(=O)NCc2ccccc2Br)cc2nc(-c3cccs3)nn12` [Example 164, 5-Amino-2-thiophen-2-yl-[1,2,4]triazolo[1,5-a]pyridine-7-carboxylic acid 2-bromo-benzylamide], for which the Ki in test [1] was determined as 25.5 nM; at HA1 adenosine receptor, 111 nM. Besides, the “selectivity (A1/A2a)” value in test [1] is 4.4.

In the case of `Nc1cc(C(=O)NC2CCCCC2)cc2nc(-c3ccc(Br)o3)nn12` [Example 165, 5-Amino-2-(5-bromo-furan-2-yl)-[1,2,4]triazolo[1,5-a]pyridine-7-carboxylic acid cyclohexylamide], in test [1], the Ki amounted to 88.8 nM and the “selectivity (A1/A2a)” value is 8.7. In addition, the affinity on HA1 adenosine receptor, expressed as Ki, was 770 nM.

`Nc1cc(C(=O)NCc2ccccc2)cc2nc(-c3ccc(Br)o3)nn12` [Example 166, 5-Amino-2-(5-bromo-furan-2-yl)-[1,2,4]triazolo[1,5-a]pyridine-7-carboxylic acid benzylamide]: in test [1], the inhibitory constant (Ki) is 39.7 nM and the “selectivity (A1/A2a)” value was 5.1. At HA1 adenosine receptor, this molecule returned an inhibition constant (Ki) of 201 nM.

Regarding `Nc1cc(C(=O)NCc2ccccc2Br)cc2nc(-c3ccc(Br)o3)nn12` [Example 167], in test [1], the inhibitory constant (Ki) came out at 42.7 nM and the “selectivity (A1/A2a)” value is 4.6. At HA1 adenosine receptor, this molecule returned a Ki of 196 nM.

In the case of `CCCCNC(=O)c1cc(N)n2nc(-c3cc(Br)co3)nc2c1` [Example 168, 5-Amino-2-(4-bromo-furan-2-yl)-[1,2,4]triazolo[1,5-a]pyridine-7-carboxylic acid butylamide], in test [1], the Ki worked out at 18.4 nM and the “selectivity (A1/A2a)” value is 2.6. At HA1 adenosine receptor, this molecule came in with a Ki of 47.2 nM.

As for `CCN(CC)C(=O)c1cc(N)n2nc(-c3cc(Br)co3)nc2c1` [Example 169, 5-Amino-2-(4-bromo-furan-2-yl)-[1,2,4]triazolo[1,5-a]pyridine-7-carboxylic acid diethylamide], in test [1], the inhibition constant Ki was 119 nM and the “selectivity (A1/A2a)” value was 3.4. This molecule also registered a Ki on HA1 adenosine receptor of 407 nM.

Regarding `Nc1cc(C(=O)N2CCCC2)cc2nc(-c3cc(Br)co3)nn12` [Example 170, [5-Amino-2-(4-bromo-furan-2-yl)-[1,2,4]triazolo[1,5-a]pyridin-7-yl]-pyrrolidin-1-yl-methanone], in test [1], the Ki amounted to 33.8 nM and the “selectivity (A1/A2a)” value was 4.5. In addition, affinity at HA1 adenosine receptor was put at a Ki of 152 nM.

As to `Nc1cc(C(=O)N2CCCCC2)cc2nc(-c3cc(Br)co3)nn12` [Example 171, [5-Amino-2-(4-bromo-furan-2-yl)-[1,2,4]triazolo[1,5-a]pyridin-7-yl]-piperidin-1-yl-methanone], the figures for the Ki (in test [1]; at HA1 adenosine receptor) were 64.9 nM and 276 nM, respectively. In addition, in test [1], the “selectivity (A1/A2a)” value was 4.3.

For `Nc1cc(C(=O)NCc2ccccc2)cc2nc(-c3cc(Br)co3)nn12` [Example 172, 5-Amino-2-(4-bromo-furan-2-yl)-[1,2,4]triazolo[1,5-a]pyridine-7-carboxylic acid benzylamide], in test [1], the Ki was determined as 29.7 nM and the “selectivity (A1/A2a)” value is listed as 0.8. In addition, the inhibitory constant (Ki) on HA1 adenosine receptor is 24.7 nM.

Consider `CC(C)N(Cc1ccccc1)C(=O)c1cc(N)n2nc(-c3cc(Br)co3)nc2c1` [Example 173, 5-Amino-2-(4-bromo-furan-2-yl)-[1,2,4]triazolo[1,5-a]pyridine-7-carboxylic acid benzyl-isopropyl-amide], for which, in test [1], the inhibition constant (Ki) worked out at 44.4 nM and the “selectivity (A1/A2a)” value is given as 1.7. This molecule registered a Ki at HA1 adenosine receptor of 73.6 nM.

Regarding `Nc1cc(C(=O)NCc2ccccc2Cl)cc2nc(-c3cc(Br)co3)nn12` [Example 174, 5-Amino-2-(4-bromo-furan-2-yl)-[1,2,4]triazolo[1,5-a]pyridine-7-carboxylic acid 2-chloro-benzylamide], in test [1], the Ki was determined as 11.1 nM and the “selectivity (A1/A2a)” value is on record as 1.6. The inhibitory constant (Ki) at HA1 adenosine receptor came out at 17.5 nM.

In the case of `Nc1cc(C(=O)NCc2ccccc2Br)cc2nc(-c3cc(Br)co3)nn12` [Example 175, 5-Amino-2-(4-bromo-furan-2-yl)-[1,2,4]triazolo[1,5-a]pyridine-7-carboxylic acid 2-bromo-benzylamide], the Ki came out at 14.6 nM in test [1] and 22.6 nM on HA1 adenosine receptor. Moreover, the “selectivity (A1/A2a)” value in test [1] is 1.5.

For `COc1ccc(CNC(=O)c2cc(N)n3nc(-c4cc(Br)co4)nc3c2)cc1` [Example 176, 5-Amino-2-(4-bromo-furan-2-yl)-[1,2,4]triazolo[1,5-a]pyridine-7-carboxylic acid 4-methoxy-benzylamide], in test [1], the inhibitory constant (Ki) was found to be 329 nM and the “selectivity (A1/A2a)” value is listed as 0.5. The affinity at HA1 adenosine receptor corresponds to a Ki of 151 nM.

Source of the values: patent publication US6506772B1, “Substituted [1,2,4]triazolo[1,5a]pyridine derivatives with activity as adenosine receptor ligands” (Hoffmann-La Roche Inc., priority 2000, dated 2003).
